Laboratory results taken from patent US20100098631A1, “Novel-2-Heteroaryl Substituted Indoles 695” (ASTRAZENECA AB, priority 2007, published 2010).

Each compound was assayed against T1, synthetic Aβ 1-40 (Homo sapiens, UniProt P05067) (assay: Competition binding assay ([3H]PIB as radioligand)). Conditions: [3H]PIB 2.7 nM as radioligand, synthetic Aβ 1-40, phosphate buffer pH 7.5, 30 min room temperature; read-out: IC50 in the competion binding assay.
T1 construct: using synthetic Aβ 1-40 in 2.7 nM of [^3H]PIB
T1 sequence (P05067 672-711 limits assumed): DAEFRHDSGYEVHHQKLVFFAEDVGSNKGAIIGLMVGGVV
Procedure: Competition binding was performed in 384-well FB filter plates using synthetic Aβ 1-40 in 2.7 nM of [^3H]PIB (or another ^3H-labeled radioligand when so mentioned) in phosphate buffer at pH 7.5, by adding various concentrations of non-radioactive compounds originally dissolved in DMSO. The binding mixture was incubated for 30 min at room temperature, followed by vacuum filtration, and subsequently by washing twice with 1% Triton-X100. Scintillation fluid was thereafter added to the collected Aβ 1-40 on the filter plate, and the activity of the bound remaining radioligand ([^3H]PIB or another ^3H-labeled radioligand) was measured using 1450 Microbeta from PerkinElmer. Specific binding was determined according to the competion binding assay described herein. The determined IC50's in the competion binding assays (using [^3H]PIB as radioligand) of compounds of the present invention are shown in Table 1.

Q: With CNc1ccc(-c2cc3cc(OC)ccc3[nH]2)cn1 [5-(5-Methoxy-1H-indol-2-yl)—N-methylpyridin-2-amine] as the compound, how does the IC50 read?
A: 201 nM

Q: CC(C)(C)OC(=O)n1c(-c2ccc(C(N)=O)nc2)cc2cc(F)ccc21 [tert-Butyl 2-(6-carbamoylpyridin-3-yl)-5-fluoro-1H-indole-1-carboxylate] was tested. Which IC50 did it give?
A: 5370 nM

Q: COC(=O)c1ccc(-c2cc3cc(OC)ccc3[nH]2)nc1 [Methyl 6-(5-methoxy-1H-indol-2-yl)-nicotinate] was tested. Which IC50 did it give?
A: 141 nM

Q: For NC(=O)c1ccc(-c2cc3ccccc3[nH]2)cn1 [5-(1H-indol-2-yl)pyridine-2-carboxamide, 5-(1H-Indol-2-yl)pyridine-2-carboxamide], which IC50 is on record?
A: 143 nM

Q: For CNc1ccc(-c2cc3cc(O)ccc3[nH]2)cn1 [2-[6-(Methylamino)pyridin-3-yl]-1H-indol-5-ol], which IC50 is on record?
A: 736 nM

Q: Which IC50 does the source give for CNc1ccc(-c2cc3cc(F)ccc3[nH]2)cn1 [5-(5-Fluoro-1H-indol-2-yl)—N-methylpyridin-2-amine] here?
A: 152 nM

Q: For COC(=O)c1ccc(-c2cc3cc(O)ccc3[nH]2)nc1 [6-(5-Hydroxy-1H-indol-2-yl)-Nicotinic Acid Methyl Ester], which IC50 is on record?
A: 140 nM
